According to ChEMBL document CHEMBL1201862, “PubChem BioAssay data set” (2004):
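The compound was tested at five concentrations on cells cultured in 96-well plates, with a 48-hour exposure period. Here, GI50 denotes the concentration required for 50% inhibition of growth.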 Active and inactive are the calls of the source. Cut-off read from the data, not from the text of the source: active = GI50 up to about 1.1 µM and inactive = higher.

What was measured:
Experiment in all cases: NCI-60 cell line screen, 48 h
[1] = system: ACHN
[2] = system: CAKI-1
[3] = system: CCRF-CEM
[4] = system: HCT-15
[5] = system: HL-60
[6] = system: HOP-92
[7] = system: Hs-578T
[8] = system: K562
[9] = system: MDA-MB-231
[10] = system: NCI-H460
[11] = system: NCI-H522
[12] = system: SF-295
[13] = system: SF-539
[14] = system: SK-MEL-2
[15] = system: SW-620
[16] = system: T47D
[17] = system: U-251
[18] = system: UACC-257
[19] = system: UO-31
[20] = system: MDA-MB-435

Row | Structure (SMILES) | GI50 [1] | GI50 [2] | GI50 [3] | GI50 [4] [µM] | GI50 [5] | GI50 [6] | GI50 [7] | GI50 [8] | GI50 [9] | GI50 [10] | GI50 [11] | GI50 [12] | GI50 [13] | GI50 [14] | GI50 [15] | GI50 [16] | GI50 [17] | GI50 [18] | GI50 [19] | GI50 [20]
1 | Cc1ccc(S(=O)(=O)N2c3ccccc3[C@H]3CCC=C[C@H]32)cc1 | 19.3 µM (inactive) | 12.1 µM (inactive) | 6.9 µM (inactive) | 4.59 | 4.58 µM (inactive) | 3.16 µM (inactive) | 15.4 µM (inactive) | 3.38 µM (inactive) | 49.2 µM (inactive) | 6.56 µM (inactive) | 1.29 µM (inactive) | 3.91 µM (inactive) | 9.42 µM (inactive) | 4.58 µM (inactive) | 4.51 µM (inactive) | 4.97 µM (inactive) | 4.78 µM (inactive) | 10.1 µM (inactive) | 5 µM (inactive) | –
2 | O=C1C=CC(S(=O)(=O)C2=C/C(=C/Nc3ccc(Cl)cc3)C(=O)C=C2)=C/C1=C/Nc1ccc(Cl)cc1 | > 100 µM (inactive) | > 100 µM (inactive) | > 100 µM (inactive) | – | > 100 µM (inactive) | > 100 µM (inactive) | – | > 100 µM (inactive) | – | > 100 µM (inactive) | > 100 µM (inactive) | > 100 µM (inactive) | > 100 µM (inactive) | > 100 µM (inactive) | > 100 µM (inactive) | – | > 100 µM (inactive) | > 100 µM (inactive) | > 100 µM (inactive) | –
3 | CC(C)Oc1cccc(N2C(NCc3c[nH]c4ccccc34)=Nc3ccncc3S2(=O)=O)c1 | 20.4 µM (inactive) | 32.1 µM (inactive) | 35.2 µM (inactive) | 22.5 | 21.5 µM (inactive) | 15.4 µM (inactive) | 16.2 µM (inactive) | 21.1 µM (inactive) | – | 18.5 µM (inactive) | 17.4 µM (inactive) | 18.7 µM (inactive) | 53.6 µM (inactive) | 18.6 µM (inactive) | 33.7 µM (inactive) | 5.47 µM (inactive) | 29.4 µM (inactive) | 31.3 µM (inactive) | 47.4 µM (inactive) | 32.4 µM (inactive)
4 | O=C(O)CCCOc1cc(-c2ccccc2F)nc2cc3c(cc12)OCO3 | – | 9.64 µM (inactive) | 3.27 µM (inactive) | 27.9 | – | 13 µM (inactive) | – | – | 31.3 µM (inactive) | – | – | – | 3.4 µM (inactive) | 4.99 µM (inactive) | 6.07 µM (inactive) | > 100 µM (inactive) | 5.46 µM (inactive) | – | – | 3.18 µM (inactive)
5 | CCOC(=O)c1c(NNc2ccccc2)nc2ccccc2c1-c1ccccc1 | 39.5 µM (inactive) | 37.1 µM (inactive) | 10.9 µM (inactive) | 33 | 15.8 µM (inactive) | 27.9 µM (inactive) | – | 22.5 µM (inactive) | – | 28.4 µM (inactive) | 30.1 µM (inactive) | 42.6 µM (inactive) | 25.6 µM (inactive) | 17.2 µM (inactive) | 50.4 µM (inactive) | – | 34.4 µM (inactive) | 29.7 µM (inactive) | 25.8 µM (inactive) | –
6 | Cc1n[n+](CC(=O)c2ccccc2)c2sc(N)nn12 | > 100 µM (inactive) | > 100 µM (inactive) | > 100 µM (inactive) | > 100 | – | – | > 100 µM (inactive) | > 100 µM (inactive) | > 100 µM (inactive) | > 100 µM (inactive) | > 100 µM (inactive) | > 100 µM (inactive) | – | > 100 µM (inactive) | > 100 µM (inactive) | > 100 µM (inactive) | > 100 µM (inactive) | > 100 µM (inactive) | > 100 µM (inactive) | > 100 µM (inactive)
7 | O=[N+]([O-])C(=C(Nc1ccccc1)Nc1ccccc1)/C(Cl)=C(\Cl)[N+](=O)[O-] | 2.61 µM (inactive) | 1.61 µM (inactive) | 2.86 µM (inactive) | 2.7 | – | – | 2.74 µM (inactive) | 3.41 µM (inactive) | 3.88 µM (inactive) | 14.7 µM (inactive) | – | 9.35 µM (inactive) | 1.84 µM (inactive) | 9.84 µM (inactive) | 2.19 µM (inactive) | 2.02 µM (inactive) | 4.92 µM (inactive) | 5.97 µM (inactive) | 3.07 µM (inactive) | 3.26 µM (inactive)
8 | COCn1cnc2c(=O)n(-c3ccc(OC)cc3)c(=S)n(-c3ccc(OC)cc3)c21 | > 100 µM (inactive) | > 100 µM (inactive) | > 100 µM (inactive) | > 100 | > 100 µM (inactive) | – | – | > 100 µM (inactive) | > 100 µM (inactive) | > 100 µM (inactive) | > 100 µM (inactive) | > 100 µM (inactive) | > 100 µM (inactive) | > 100 µM (inactive) | > 100 µM (inactive) | > 100 µM (inactive) | > 100 µM (inactive) | > 100 µM (inactive) | > 100 µM (inactive) | > 100 µM (inactive)
